Experimental data reported in ChEMBL document CHEMBL3039007, “Structure-based identification of OATP1B1/3 inhibitors” (Mol Pharmacol, 2013).

Tests used:
[1] = target: T1, Solute carrier organic anion transporter family member 1B1 (Homo sapiens, UniProt Q9Y6L6); conditions: chinese hamster, cho, 10 µM
T1 sequence (Q9Y6L6 whole entry): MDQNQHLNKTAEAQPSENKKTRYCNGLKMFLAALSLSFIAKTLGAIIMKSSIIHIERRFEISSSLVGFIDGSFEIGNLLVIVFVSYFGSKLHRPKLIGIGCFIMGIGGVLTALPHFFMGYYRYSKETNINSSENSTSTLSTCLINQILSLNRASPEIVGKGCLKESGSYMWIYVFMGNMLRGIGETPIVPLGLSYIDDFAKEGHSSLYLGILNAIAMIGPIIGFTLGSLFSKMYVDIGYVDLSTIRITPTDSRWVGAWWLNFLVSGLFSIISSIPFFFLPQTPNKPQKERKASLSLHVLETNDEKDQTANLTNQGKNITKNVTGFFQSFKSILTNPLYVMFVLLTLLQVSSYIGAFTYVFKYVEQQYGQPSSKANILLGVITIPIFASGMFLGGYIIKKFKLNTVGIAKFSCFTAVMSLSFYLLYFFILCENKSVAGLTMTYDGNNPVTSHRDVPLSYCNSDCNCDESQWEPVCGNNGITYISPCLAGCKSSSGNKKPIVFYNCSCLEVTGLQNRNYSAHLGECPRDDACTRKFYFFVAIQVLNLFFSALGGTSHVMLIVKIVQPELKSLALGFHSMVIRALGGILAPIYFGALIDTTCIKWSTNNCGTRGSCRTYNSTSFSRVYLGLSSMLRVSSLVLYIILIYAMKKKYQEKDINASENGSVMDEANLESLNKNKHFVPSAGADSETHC

[2] = target: T2, Solute carrier organic anion transporter family member 1B3 (Homo sapiens, UniProt Q9NPD5); conditions: chinese hamster, cho, 10 µM
T2 sequence (Q9NPD5 whole entry): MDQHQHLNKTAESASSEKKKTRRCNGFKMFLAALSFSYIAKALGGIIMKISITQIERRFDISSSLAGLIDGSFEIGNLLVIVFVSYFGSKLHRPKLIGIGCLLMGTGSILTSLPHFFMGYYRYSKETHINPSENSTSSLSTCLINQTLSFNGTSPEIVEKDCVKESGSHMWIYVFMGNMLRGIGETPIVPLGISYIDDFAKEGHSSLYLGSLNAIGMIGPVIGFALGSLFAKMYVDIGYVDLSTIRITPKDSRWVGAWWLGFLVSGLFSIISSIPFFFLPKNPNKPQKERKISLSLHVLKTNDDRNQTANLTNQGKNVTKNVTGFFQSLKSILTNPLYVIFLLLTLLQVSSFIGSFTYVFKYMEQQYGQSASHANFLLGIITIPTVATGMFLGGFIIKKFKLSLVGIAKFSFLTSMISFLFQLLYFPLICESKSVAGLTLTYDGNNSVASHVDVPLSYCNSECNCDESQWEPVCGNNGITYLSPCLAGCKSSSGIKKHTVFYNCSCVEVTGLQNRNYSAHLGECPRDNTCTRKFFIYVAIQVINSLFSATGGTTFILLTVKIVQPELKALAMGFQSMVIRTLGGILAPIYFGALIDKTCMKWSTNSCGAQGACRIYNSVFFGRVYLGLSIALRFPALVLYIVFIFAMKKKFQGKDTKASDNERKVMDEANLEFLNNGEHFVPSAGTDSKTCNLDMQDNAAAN

SMILES | residual activity [1] [%] | residual activity [2] [%]
CC(=O)O.CSC(=N)NCCC[C@H](N)C(=O)O [S-METHYL-L-THIOCITRULLINE ACETATE] | 104.5 | 107
O=C1NS(=O)(=O)c2ccccc21 [SACCHARIN] | 112.4 | 110.9
C=CCc1ccc2c(c1)OCO2 [SAFROLE] | 83.42 | 100.9
OCC(O)Cc1ccc2c(c1)OCO2 (stereo unspecified) [SAFROLGLYCOL] | 82.94 | 83.74
OCc1ccccc1O[C@@H]1O[C@H](CO)[C@@H](O)[C@H](O)[C@H]1O [SALICIN] | 85.64 | 97.32
OCc1ccccc1O [SALICYL ALCOHOL] | 92.07 | 117.7
NC(=O)c1ccccc1O [SALICYLAMIDE] | 85.6 | 94.84
COc1cc2c(cc1OC)[C@H](C)NCC2 [SALSOLIDINE] | 117.3 | 93.8
COc1cc2c(cc1O)CCN[C@@H]2C [SALSOLINE] | 86.65 | 112.8
C[n+]1cc2c3c(ccc2c2ccc4cc5c(cc4c21)OCO5)OCO3.O=S(=O)([O-])O [SANGUINARINE SULFATE] | 134.6 | 92.42
CC1=C2[C@H]3OC(=O)[C@@H](C)[C@@H]3CC[C@@]2(C)C=CC1=O [SANTONIN] | 108.9 | 89.43
COc1ccc2c(c1)OC/C(=C/c1ccc(O)c(O)c1)C2=O [SAPPANONE A 7-METHYL ETHER] | 159.5 | 107.8
COc1ccc2c(c1)OC/C(=C\c1ccc(OC)c(O)c1)C2=O [SAPPANONE A DIMETHYL ETHER] | 166.6 | 136.1
COc1ccc2c(c1)OC/C(=C/c1ccc(OC)c(OC)c1)C2=O [SAPPANONE A TRIMETHYL ETHER] | 112 | 100.7
Cl.O=C(O)c1cn(-c2ccc(F)cc2)c2cc(N3CCNCC3)c(F)cc2c1=O [SARAFLOXACIN HYDROCHLORIDE] | 109.6 | 115.6
C[C@]12CC[C@H](O)C[C@H]1CC[C@@H]1[C@@H]2[C@H](O)C[C@]2(C)[C@@H](C3=CC(=O)OC3)CC[C@]12O [SARMENTOGENIN] | 70.58 | 105.8
COC1C(O)C(O[C@H]2CC[C@]3(C=O)C4C(CC[C@]3(O)C2)[C@@]2(O)CC[C@H](C3=CC(=O)OC3)[C@@]2(C)C[C@H]4OC(C)=O)OC(C)C1OC(C)=O (stereo partly specified) [SARMENTOSIDE B] | 58.47 | 72.65
COc1cc2ccc(=O)oc2cc1O [SCOPOLETIN] | 87.31 | 99.95
Cc1ncc([N+](=O)[O-])n1CC(C)O (stereo unspecified) [SECNIDAZOLE] | 132.9 | 92.29
O=C1C=C2C=C[C@@H]3C[C@@]2(O1)[C@H]1CCCCN31 [SECURININE] | 92.42 | 115.4
CO[C@H]1C[C@H](O[C@@H]2/C(C)=C/C[C@@H]3C[C@@H](C[C@]4(CC[C@H](C)[C@@H](C5CCCCC5)O4)O3)OC(=O)[C@@H]3C=C(C)/C(=N/O)[C@H]4OC/C(=C\C=C\[C@@H]2C)[C@]43O)O[C@@H](C)[C@@H]1O [SELAMECTIN] | 98.02 | 93.37
CC1CCC(NC(=O)N(CCCl)N=O)CC1 (stereo unspecified) [SEMUSTINE] | 101.5 | 100.5

SMILES | residual activity [1] [%] | residual activity [2] [%]
CC(=O)Oc1c(-c2ccccc2)oc2c(CC=C(C)C)c3c(c(OC(C)=O)c2c1=O)C=CC(C)(C)O3 [SERICETIN DIACETATE] | 106.8 | 81.94
CC(C)=CCc1c2c(c(O)c3c(=O)c(O)c(-c4ccccc4)oc13)C=CC(C)(C)O2 [SERICETIN] | 89.94 | 98.26
CN[C@H]1CC[C@@H](c2ccc(Cl)c(Cl)c2)c2ccccc21.Cl [SERTRALINE HYDROCHLORIDE] | 66.16 | 72.13
CCNc1nc(Cl)nc(NCC)n1 [SIMAZINE] | 89.71 | 92.02
COc1cc(/C=C/C(=O)O)cc(OC)c1OC [SINAPIC ACID METHYL ETHER] | 80.23 | 88.51
COC1=C[C@@H]2[C@@H]3Cc4ccc(OC)c(O)c4[C@]2(CCN3C)CC1=O [SINOMENINE] | 105.5 | 68.46
CC[C@H](CC[C@@H](C)[C@H]1CC[C@H]2[C@@H]3CC=C4C[C@@H](OC(C)=O)CC[C@]4(C)[C@H]3CC[C@]12C)C(C)C [SITOSTERYL ACETATE] | 97.72 | 83.78
O=C([O-])CF.[Na+] [SODIUM FLUOROACETATE] | 112.7 | 104.2
O=C([O-])c1ccccc1O.[Na+] [SODIUM SALICYLATE] | 55.28 | 80.83
NC(=O)c1ccc[n+]([C@@H]2O[C@H](COP(=O)([O-])OP(=O)(O)OC[C@H]3O[C@@H](n4cnc5c(N)ncnc54)[C@H](OP(=O)(O)O)[C@@H]3O)[C@@H](O)[C@H]2O)c1 [SODIUM beta-NICOTINAMIDE ADENINE DINUCLEOTIDE PHOSPHATE] | 190 | 105.1
C[C@@H]1CC[C@]2(NC1)O[C@H]1C[C@H]3[C@@H]4CC=C5C[C@@H](O)CC[C@]5(C)[C@H]4CC[C@]3(C)[C@H]1[C@@H]2C [SOLASODINE] | 91.83 | 113.6
CC(=O)N[C@@H](CC(=O)N[C@@H](CCC(=O)O)C(=O)O)C(=O)O [SPAGLUMIC ACID] | 87.3 | 87.85
COc1cc2ccc(=O)oc2c2ccoc12 [SPHONDIN] | 127 | 102.5
O=C(CCCN1CCC2(CC1)C(=O)NCN2c1ccccc1)c1ccc(F)cc1 [SPIPERONE] | 168.8 | 108.9
CC(=O)S[C@@H]1CC2=CC(=O)CC[C@]2(C)[C@H]2CC[C@@]3(C)[C@@H](CC[C@@]34CCC(=O)O4)[C@H]12 [SPIRONOLACTONE] | 52.45 | 103.5
COc1cc(C)c2c(c1C=O)Oc1c(c(C)c(O)c3c1C(O)OC3=O)OC2=O (stereo unspecified) [STICTIC ACID] | 94.3 | 32.28
CC[C@H](CC[C@@H](C)[C@H]1CC[C@H]2[C@@H]3CC[C@H]4C[C@@H](O)CC[C@]4(C)[C@H]3CC[C@]12C)C(C)C [STIGMASTANOL] | 77.21 | 102.9
CC[C@H](/C=C/[C@@H](C)[C@H]1CC[C@H]2[C@@H]3CC=C4C[C@@H](O)CC[C@]4(C)[C@H]3CC[C@]12C)C(C)C [STIGMASTEROL] | 110.2 | 103.2
CN[C@@H]1[C@H](O[C@H]2[C@H](O[C@H]3[C@H](O)[C@@H](O)[C@H](N=C(N)N)[C@@H](O)[C@@H]3N=C(N)N)O[C@@H](C)[C@]2(O)C=O)O[C@@H](CO)[C@H](O)[C@H]1O.CN[C@@H]1[C@H](O[C@H]2[C@H](O[C@H]3[C@H](O)[C@@H](O)[C@H](N=C(N)N)[C@@H](O)[C@@H]3N=C(N)N)O[C@@H](C)[C@]2(O)C=O)O[C@@H](CO)[C@H](O)[C@H]1O.O=S(=O)(O)O.O=S(=O)(O)O.O=S(=O)(O)O [STREPTOMYCIN SULFATE] | 87.18 | 109.2
CN(N=O)C(=O)N[C@@H](C=O)[C@@H](O)[C@H](O)[C@H](O)CO [STREPTOZOCIN] | 93.43 | 100.3
CC1(C)C2(Cl)C(Cl)C(Cl)C(Cl)(C(Cl)Cl)C1(Cl)C2Cl (stereo unspecified) [STROBANE] | 106.1 | 105.4
